From patent publication US20040115245A1, “Autoinducer compounds and their uses” (priority 2001, published 2004)
“Also recorded” adds a separate entry of the source.

Columns and labels:
cultures of rumen fluid = test: In vitro digestion of grass silage by cultures of rumen fluid; format: cell-based, cow; conditions: OHHL 0, 200, 500 and 1000 nanomoles final in rumen fluid, 37° C., 10 hours, triplicate
Excerpt: Autoinducer compounds such as acyl homoserine lactones can have significant effects on cultures of bacteria. For example, they may be used to induce expression of antibiotics and extracellular enzymes. […] is the signal molecule for antibiotic production in Chromobacterium violaceum; butanoyl homoserine lactone triggers various phenotypes in Pseudomonas aeruginosa including the production of various enzymes and lectins. OHHL is known to have different effects on different species. For example, in Erwinia stewartii it induces production of exopolysaccharides, while in Vibrio species it promotes bioluminescence. Thus, in a complex mixed culture comprising many species including ruminobacter sp., prevotella sp., ruminococcus sp., it is hard to predict the specific phenotypes that will be induced by even the introduction of just one autoinducer compound. However. the global effect on rumen mixed culture fermentation can be measured in terms of the efficiency of digestion of forage. […] A control sample treated with water and four test samples treated with using nanomolar concentrations of OHHL are examined.
Rumen fluid was collected from a healthy fistulated grass fed cow and immediately dispensed into 75 ml bottles. These bottles were kept at 37° C. […]

broiler chickens = test: Growth performance and mortality of broiler chickens raised in floor pens; format: in vivo, broiler chickens (Cobb×Cobb); conditions: for Feed Conversion, Day 21-35: grower period; for Daily Feed intake, Day 0-21 / Daily Feed intake, Day 0-35 / Daily Feed intake, Day 21-35: per bird
Experimental: This experiment examined the effect of N-(3-oxohexanoyl)-L-homoserine lactone (OHHL) (CAS #: 143537626, molecular formula : C10H15NO4, molecular weight: 213) on the growth performance and mortality of broiler chickens.
A stock solution of 1 mM OHHL (0.213 g/L) was prepared as follows. Approximately 50% of the required volume of distilled water was warmed to approximately 30-40° C. and used to dissolve the required amount of OHHL powder. The solution was made up to volume using distilled water stored at room temperature. OHHL solution (0.213 g/L) was applied to treated crumbled feed at a rate of 3 kg per tonne. Control feed was treated with distilled water at a rate of 3 kg per tonne. The OHHL solution was stored for less than 2 days prior to application to feed.
The antibiotic BMD®110 was used as a positive control in this study. The active ingredient is bacitracin methylene disalicyclate. The product contains 110 g of bacitracin activity per kg and is approved for prevention of necrotic enteritis in broiler chickens when given at a dose of 55 ppm in feed (500 g BMD®110/tonne feed).
Coxistac® 6% premix was used as an ionophore in all study diets as an aid in the prevention of coccidiosis. The product contained 60 g salinomycin per kg and was administered at a dose of 60 ppm in feed (1 kg Coxistac® 6% premix per tonne feed).
The experiment lasted 35 days with the day of placement of broiler chicks considered as day zero. A total of 1,200 male day-old broiler chickens (Cobb×Cobb) were assigned to treatment on day 0. Birds were vaccinated for Marek's disease at the hatchery. Twenty-four pens, each providing 45 square feet of floor space, were assigned to treatment groups. […] Adjacent pens were separated by a solid 12-inch high plastic barrier at bird level. A welded wire fence with 1-inch square openings was located on top of all barriers. Each pen was permanently identified by number and contained 50 birds on day zero. Each pen contained four nipple-type drinkers which provided clean drinking water ad libitum. Dry feed was provided ad libitum in tube-type feeders (one per pen) of 20 kg capacity.
The barn was heated by five natural gas heaters which were equally spaced and positioned to warm incoming air at the north wall of the building. Air was exhausted by fans located on the south-facing wall of the building. Lighting program, barn temperature, and other management practices were typical of commercial broiler chicken producers in North America. Birds that were moribund and unable to reach food or water were culled and euthanised by carbon dioxide gas.
Bodyweight, pen number and date of death were recorded for each bird that was culled or found dead. Mortalities were submitted to the pathologist to determine the apparent cause of death.
A randomised complete block design was used to study the main and interactive-effects of OHHL (0 and 0.639 g/tonne) and dietary antibiotic ([…]) in a 2×2 factorial arrangement. Dietary treatments were as follows:
There were four pens per block and six replicate blocks for a total of 24 pens.
The feeding program was used in the study used a starter feed type on days 0 to 20 and a grower feed type on days 21 to 35. Diet formulation was representative of commercial diets in North America.
A starter diets using a basal mix of starter diet containing either 0 or 55 ppm BMD was manufactured, pelleted, and crumbled. Bagged starter feed was treated with either distilled water (0 g OHHL per L) or OHHL solution (0.213 g OHHL per L) using a horizontal double ribbon mixer of 100 kg capacity. Distilled water or OHHL solution (0.213 g per L) were applied to crumbled feed at a rate of 3 kg per tonne feed. Grower diets were manufactured as described above for starters.
The data collected consisted of:
1. Bodyweight on days 0, 21, and 35.
2. Amounts of each feed (starter and grower) consumed.
3. Bodyweight and date of death for birds which were culled or died.
4. […]

sheep = test: Rumen dry matter disappearance of corn silage in cannulated sheep (in situ bags); format: in vivo; set-up: dry matter disappearance, OHHL − Control, Mean / dry matter disappearance, OHHL − Control, 4 Hours / dry matter disappearance, OHHL − Control, 8 Hours / dry matter disappearance, OHHL − Control, 12 Hours / dry matter disappearance, OHHL − Control, 24 Hours: concentration or dose not given beside the values
Experimental: This experiment examined the effect of N-(3-oxohexanoyl)-L-homoserine lactone (OHHL) (CAS#: 143537626, molecular formula : C10H15NO4, molecular weight: 213) on rumen dry matter disappearance in vivo in sheep.
A stock solution of OHHL (0.639 gram/L) was prepared as follows. Approximately 50% of the required volume of distilled water was warmed to approximately 30-40° C. and used to dissolve the required amount of OHHL powder. The volumetric flask was made up to volume using distilled water stored at room temperature. OHHL solution was applied to pelleted sheep ration at a rate of 3 kg per tonne of feed. Control feed was treated with 3 kg of distilled water per tonne.
Initial attempts to administer OHHL by application of an aqueous solution to the outside of pelleted feed were modified as the sheep decreased intake of treated feed after a few days. Instead, OHHL was administered as an oral drench twice daily commencing on the afternoon of Day 11 of each period.
A restricted quantity of pelleted ration was provided at a rate of approximately 0.5 kg/day (0.25 kg in the a.m. and 0.25 kg in the p.m.). Access to hay was restricted as needed to help ensure that sheep ration was consumed.
On Days 12 and 13, pelleted ration (0.25 kg/animal) was issued to animals approximately 1 hour prior to introduction of bags into the rumen and again following removal of the 8-hour bag from each animal.
One fresh sample of corn silage was dried to constant weight and allowed to cool to room temperature. A representative sub-sample was taken for dry matter determination. The sample was ground to pass a 1 mm screen, mixed and sampled for dry matter assay. The remaining sample was stored for in situ determination of dry matter disappearance from the rumen of cannulated sheep.
Ankom rumen sampling bags were used in the study. Each bag was approximately 5 cm×10 cm, suitable for a one-gram sample. Pore size was 53±10 microns. Dried, ground corn silage was weighed (1.00±0.01 grams) into bags and sealed. A set of four bags was prepared per animal per day and these were attached to a string to facilitate placement in and removal from the rumen. A fifth bag served as a blank for each set of four bags. The blank was not placed in the rumen but was washed, processed and dried.
A rumen cannula was surgically placed in each of five mature (approximately 3-year old) ewes. Following recovery from surgery, four of these animals were selected for use in the study. The fifth animal served as a reserve for use in the event of post-surgical complications in a study animal.
Dry matter disappearance was measured by removing bags from the rumen at 4, 8, 12 and 24 hours and washed under cold running tap water together with a corresponding blank bag. Bags were then dried to constant weight. Measurement of dry matter disappearance was completed for each animal commencing on the morning of Day 12 and Day 13 of each period.
A Latin Square Design was used to study the effects of two treatments:
A, Control: 0 gram OHHL per tonne ration.
B: Treated with the equivalent of 1.917 gram OHHL per tonne ration.
Each period was of 14 days duration. A total of four study animals were blocked based on bodyweight (2 blocks). Animals within block were randomly assigned to Sequence 1 or 2:
Data were analysed by a multiple regression analysis that included effects of treatment, animal, period, study day and hour.

[1] = individual treatment mean (2×2 factorial cell)
[2] = individual treatment mean (2×2 factorial cell), OHHL 0.639 g/tonne feed, BMD 110 500 g/tonne
[3] = main-effect mean pooled over the other factor

In the case of `CCCC(=O)CC(=O)N[C@H]1CCOC1=O` [OHHL, N-(3-oxohexanoyl)-L-homoserine lactone], the “mean percentage loss of weight of grass silage” value (cultures of rumen fluid) is reported as “increased the mean percentage loss of weight”, the “adverse effects on bird health / survival” value (broiler chickens; continuous administration in feed for 35 days, necropsy of all mortalities) is reported as “no evidence of any adverse effect; also recorded: did not have an adverse effect on bird survival” and the “Mortality, Day 0-21” value (broiler chickens; [1]) is reported as 1.0%. The “Mortality, Day 0-35” value (broiler chickens; [1]) was 1.7%, the “Mortality, Day 21-35” value (broiler chickens; [1]) was 0.7% and the “Average bodyweight, Day 21” value (broiler chickens; [2]) was 0.796 kg. The “Average bodyweight, Day 35” value (broiler chickens; [2]) was 1.934 kg, the “Feed Conversion, Day 21-35” value (broiler chickens; [1]) was 1.812 and the “Feed Conversion, Day 0-35” value (broiler chickens; individual treatment mean (2×2 factorial cell), overall period) was 1.629. The “Daily Feed intake, Day 0-21” value (broiler chickens; [1]) was 0.049, the “Daily Feed intake, Day 0-35” value (broiler chickens; [1]) was 0.088 and the “Daily Feed intake, Day 21-35” value (broiler chickens; [1]) was 0.147. For the same molecule, the “Feed Conversion, Day 0-21” value (broiler chickens; individual treatment mean (2×2 factorial cell), starter period) was 1.357, the “Mortality, Day 0-21” value (broiler chickens; [3]) was 1.3% and the “Mortality, Day 0-35” value (broiler chickens; [3]) was 2.2%. For the same molecule, the “Mortality, Day 21-35” value (broiler chickens; [3]) was 0.8%, the “Average bodyweight, Day 35” value (broiler chickens; main-effect mean pooled over the other factor, OHHL 0.639 g/tonne feed, BMD 110 500 g/tonne) was 1.937 kg and the “Feed Conversion, Day 21-35” value (broiler chickens; [3]) was 1.794. For the same molecule, the “Daily Feed intake, Day 0-21” value (broiler chickens; [3]) was 0.048, the “Daily Feed intake, Day 0-35” value (broiler chickens; [3]) was 0.087 and the “Daily Feed intake, Day 21-35” value (broiler chickens; [3]) was 0.147. The “dry matter disappearance, 4 Hours” value (sheep; corn silage in rumen bags, 4 h incubation, OHHL equivalent to 1.917 gram per tonne ration, oral drench twice daily) was 53.0%, the “dry matter disappearance, 8 Hours” value (sheep; corn silage in rumen bags, 8 h incubation, OHHL equivalent to 1.917 gram per tonne ration) was 57.8% and the “dry matter disappearance, 12 Hours” value (sheep; corn silage in rumen bags, 12 h incubation, OHHL equivalent to 1.917 gram per tonne ration) was 65.7%. The “dry matter disappearance, 24 Hours” value (sheep; corn silage in rumen bags, 24 h incubation, OHHL equivalent to 1.917 gram per tonne ration) was 74.5%, the “dry matter disappearance, OHHL − Control, 4 Hours” value (sheep; difference to control, 4 h) was 4.16% and the “dry matter disappearance, OHHL − Control, 8 Hours” value (sheep; difference to control, 8 h) was −0.60%. The “dry matter disappearance, OHHL − Control, 12 Hours” value (sheep; difference to control, 12 h) was 3.36%, the “dry matter disappearance, OHHL − Control, 24 Hours” value (sheep; difference to control, 24 h) was 0.15% and the “dry matter disappearance, OHHL − Control, Mean” value (sheep; difference to control, mean of all times (percentage units; P=0.105)) was 1.77%. For the same molecule, the “dry matter disappearance, Mean” value (sheep; mean over 4, 8, 12, 24 h) was 62.7%.
